Laboratory results from patent US7547799B1, “Method for producing phenolic compound” (Sabic Innovative Plastics IP B.V., priority 2008, dated 2009).

Experiment: Determination of the solubility of BMSC in MeOH at 65° C. (with reflux)
Format: physicochemical
Protocol: Determination of the Solubility of BMSC in MeOH at 65° C. (with Reflux):
BMSC was loaded in a round bottom flask, a small amount of MeOH was added to the BMSC, to form a slurry. This mixture was heated up to 65° C. under reflux. MeOH was then continuously added under vigorous stirring, until a lucid and colorless solution was obtained.

COC(=O)c1ccccc1OC(=O)Oc1ccccc1C(=O)OC [BMSC, bismethylsalicylcarbonate]
solubility of BMSC in MeOH (lucid and colorless solution obtained) (65° C., under reflux, vigorous stirring): 5.8 mass % | solution of BMSC in MeOH obtainable under reflux (restated in the discussion): 6%
